Experimental data from article PMC6798786 (Brain Communications, 2019).
“Also recorded” adds a separate entry of the source. Read-outs that look alike come from different tables or passages of the source.

Assays:
[1] = tested on: scn1lab mutant zebrafish; test: locomotion (mean swim velocity) seizure-like behaviour assay in scn1lab mutant zebrafish larvae; type: in vivo, Danio rerio; conditions: for effect on seizure-like swim behaviour, initial library screen: 100 µM or 250 µM, UCSF-synthesized compound; for effect on seizure-like swim behaviour, retest of independently synthesized compound: 10, 50, 100 and 250 µM; for effect on seizure-like swim behaviour, retest of independently synthesized compound / effect on seizure-like swim behaviour, commercially available compounds: 30 and 90 min exposure; for change in vivo at 100 µM / change in vivo at 250 µM: Danio rerio; for effect on seizure-like swim behaviour, commercially available compounds: three concentrations
Description: (§1) For locomotion studies, zebrafish larvae (5 days post-fertilization) were placed into a single well of a clear flat-bottomed 96-well microplate containing embryo media. Sex determination is not possible at this stage of development. All drug screening experiments were conducted in an unbiased manner by investigators blinded to the test compounds and all files coded for post hoc analysis. The 96-well plate containing larvae was then placed inside a DanioVision box where they were allowed to acclimate (20 min; room temperature). EthoVision XT software (DanioVision, Noldus Information Technology) was used to obtain locomotion plots (10 min in duration). Seizure scoring was performed, as described ([Baraban et al., 2005]). All locomotion plots were analysed for distance travelled (in millimetres) and mean velocity (in millimetres per second). After 90 min of drug exposure larvae were examined for toxic side-effects. Compounds that decreased or stopped the larva heartbeat, or reduced or eliminated the escape response when touched, were considered toxic.
For behaviour analysis, the threshold for a change in mean swim velocity ≥40% is considered significant (>1.5× SD of 250 control treated scn1lab). Unless otherwise indicated, all data in this manuscript are presented as the mean ± standard error of the mean. […] Statistically significant differences are indicated with asterisks (*P < 0.05; **P < 0.01; ***P < 0.001). […]

[2] = tested on: scn1lab mutant zebrafish; test: local field potential (LFP) electrophysiology, electrographic seizure events; type: in vivo, Danio rerio; conditions: for effect on electrographic seizure activity (LFP): 100 µM, 10 min recording epoch
Description: Using a glass micro-electrode positioned under an upright microscope, local field potential (LFP) recordings were obtained from forebrain or optic tectum structures, as described ([Baraban et al., 2005]). Agarose-embedded LFP recording sessions (10 min in duration) were obtained using Axoclamp software (Molecular Devices; Sunnyvale, CA, USA) and sampled at 1 kHz. Epileptiform events were identified post hoc. These were classified as multi-spike or poly-spike upward or downward membrane deflections greater than 3× baseline noise level and 150–250 ms in duration (interictal-like) or greater than 5× baseline noise, multi-spike and >500 ms in duration (ictal-like); both events were counted using threshold detection settings in Clampfit (Molecular Devices; Sunnyvale, CA, USA). Agarose-embedded larvae were continuously monitored for blood flow and heart rate using an Axiocam digital camera at video frame rate.
Monitoring electrographic brain activity to confirm seizure suppression is an essential assay to eliminate false positives from behavioural testing ([Griffin et al., 2018]). By placing a micro-electrode into a visually identified brain region of an agar-immobilized zebrafish larval, stable LFP recordings can be monitored for several hours ([Baraban, 2013]). At 5 days post-fertilization, LFP recordings of scn1Lab zebrafish larvae show an average of 250 abnormal electrographic seizure events during a 10 min recording epoch.

[3] = biological target: T1, human 5-HT2BR (Homo sapiens, UniProt P41595); test: radioligand binding (NIMH PDSP)
Description: (§2) All in vitro binding assay and Ki data studies were performed by the US National Institute of Mental Health Psychoactive Drug Screening Program (NIMH PDSP). For these studies, drugs were screened against recombinant, stably expressed human 5-HT2AR, 5-HT2BR, 5-HT2CR and H1, as described at https://pdspdb.unc.edu/pdspWeb/ ([Besnard et al., 2012]).

[4] = biological target: human H1 (Homo sapiens, UniProt P35367); test: radioligand binding (NIMH PDSP)
Description: as §2

[5] = tested on: human 5-HT2R; test: radioligand binding (NIMH PDSP), any 5-HT2R subtype; conditions: 5-HT2AR, 5-HT2BR, 5-HT2CR
Description: as §2
Additionally, 5-HT2R modulating compounds exert antiepileptic activity in both preclinical ([Sourbron et al., 2016]; [Griffin et al., 2017]) and clinical studies ([Griffin et al., 2017]; [Schoonjans et al., 2017]; [Kauppila et al., 2018]). […] […].

[6] = biological target: human 5-HT2AR (Homo sapiens, UniProt P28223); conditions: read-out: 5-HT2AR (nM), Table S3, cited from earlier work
[7] = biological target: T1, human 5-HT2BR; conditions: commercially available compounds known to bind 5-HT2BR; ref Roth et al., 2000; read-out: 5-HT2BR (nM), Table S3; cited from earlier work
[8] = biological target: T2, human 5-HT2CR (Homo sapiens, UniProt P28335)
T2 sequence (P28335 33-458): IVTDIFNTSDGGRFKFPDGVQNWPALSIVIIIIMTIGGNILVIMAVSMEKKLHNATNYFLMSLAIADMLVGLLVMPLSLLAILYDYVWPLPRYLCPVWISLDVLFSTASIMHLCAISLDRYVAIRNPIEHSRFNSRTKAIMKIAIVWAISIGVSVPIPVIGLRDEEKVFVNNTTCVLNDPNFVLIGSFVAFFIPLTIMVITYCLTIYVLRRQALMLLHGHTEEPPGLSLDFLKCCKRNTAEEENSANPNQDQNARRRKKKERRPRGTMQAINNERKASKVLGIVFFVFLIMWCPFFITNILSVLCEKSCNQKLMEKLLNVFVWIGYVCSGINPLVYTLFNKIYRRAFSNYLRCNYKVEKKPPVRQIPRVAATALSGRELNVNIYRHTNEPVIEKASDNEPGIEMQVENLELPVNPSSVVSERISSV

[9] = tested on: scn1lab mutant zebrafish larvae; test: toxicity check of larvae after 90 min drug exposure (heartbeat, escape response); type: in vivo, Danio rerio; conditions: 90 min exposure
Description: as §1, with “Seizure scoring was performed, as described ([Baraban et al., 2005]).” left out

[10] = read-out: % change in velocity, individual larva 1 (heat map)
[11] = read-out: % change in velocity, individual larva 2 (heat map)
[12] = read-out: % change in velocity, individual larva 3 (heat map)
[13] = read-out: % change in velocity, individual larva 4 (heat map)
[14] = read-out: % change in velocity, individual larva 5 (heat map)
[15] = read-out: % change in velocity, individual larva 6 (heat map)
[16] = read-out: mean velocity change from six fish, Trial 1
[17] = read-out: mean velocity change from six fish, Trial 2
[18] = commercially available compounds known to bind 5-HT2BR; ref Roth et al., 2000; read-out: 5-HT2CR (nM), Table S3; cited from earlier work
[19] = commercially available compounds known to bind 5-HT2BR, ref Roth et al., 2000
[20] = read-out: 5-HT2CR (nM), Table S3; commercially available compounds known to bind 5-HT2BR; ref Roth et al., 2000; cited from earlier work

Sequence of human 5-HT2AR (P28223 whole entry): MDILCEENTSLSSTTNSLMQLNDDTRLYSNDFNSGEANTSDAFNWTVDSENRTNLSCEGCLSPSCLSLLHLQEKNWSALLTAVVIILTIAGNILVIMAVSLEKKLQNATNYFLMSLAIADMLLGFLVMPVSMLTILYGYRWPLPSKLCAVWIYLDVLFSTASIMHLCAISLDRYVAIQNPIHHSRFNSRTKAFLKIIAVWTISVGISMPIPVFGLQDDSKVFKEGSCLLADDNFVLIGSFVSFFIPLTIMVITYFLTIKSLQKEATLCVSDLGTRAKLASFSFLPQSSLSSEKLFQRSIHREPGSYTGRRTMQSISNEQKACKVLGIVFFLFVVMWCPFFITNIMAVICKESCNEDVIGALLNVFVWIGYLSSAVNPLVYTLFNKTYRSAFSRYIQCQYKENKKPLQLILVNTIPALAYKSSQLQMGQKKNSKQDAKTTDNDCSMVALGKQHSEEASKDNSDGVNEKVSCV
T1 sequence (P41595 whole entry): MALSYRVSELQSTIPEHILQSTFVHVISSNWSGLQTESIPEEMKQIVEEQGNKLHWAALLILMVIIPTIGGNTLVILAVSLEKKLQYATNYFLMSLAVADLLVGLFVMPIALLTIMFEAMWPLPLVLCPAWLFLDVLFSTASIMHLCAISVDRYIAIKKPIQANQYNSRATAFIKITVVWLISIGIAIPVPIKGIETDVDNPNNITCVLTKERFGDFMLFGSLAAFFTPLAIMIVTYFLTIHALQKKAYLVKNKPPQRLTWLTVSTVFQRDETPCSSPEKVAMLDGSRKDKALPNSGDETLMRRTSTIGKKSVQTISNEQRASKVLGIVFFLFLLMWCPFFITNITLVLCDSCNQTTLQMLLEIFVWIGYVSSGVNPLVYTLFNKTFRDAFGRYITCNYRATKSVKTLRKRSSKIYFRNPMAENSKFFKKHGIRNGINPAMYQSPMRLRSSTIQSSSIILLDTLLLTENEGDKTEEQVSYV
Sequence of human H1 (P35367 whole entry): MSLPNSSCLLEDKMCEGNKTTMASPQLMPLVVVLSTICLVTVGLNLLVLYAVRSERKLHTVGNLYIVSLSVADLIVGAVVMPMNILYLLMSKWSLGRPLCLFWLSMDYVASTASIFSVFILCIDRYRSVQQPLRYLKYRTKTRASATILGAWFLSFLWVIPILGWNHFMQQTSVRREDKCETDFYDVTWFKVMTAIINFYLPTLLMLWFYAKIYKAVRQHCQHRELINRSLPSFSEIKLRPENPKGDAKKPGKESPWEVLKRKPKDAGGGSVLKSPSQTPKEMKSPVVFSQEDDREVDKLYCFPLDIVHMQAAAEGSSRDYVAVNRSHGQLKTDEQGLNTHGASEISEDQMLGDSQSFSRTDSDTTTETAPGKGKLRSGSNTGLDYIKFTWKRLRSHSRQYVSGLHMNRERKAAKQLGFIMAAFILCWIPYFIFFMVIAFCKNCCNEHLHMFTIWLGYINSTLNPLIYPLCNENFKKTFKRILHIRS

SMILES | change in vivo at 100 µM [1, 10] | change in vivo at 250 µM [1, 10] | change in vivo at 100 µM [1, 11] | change in vivo at 250 µM [1, 11] | change in vivo at 100 µM [1, 12] | change in vivo at 250 µM [1, 12] | change in vivo at 100 µM [1, 13] | change in vivo at 250 µM [1, 13] | change in vivo at 100 µM [1, 14] | change in vivo at 250 µM [1, 14] | change in vivo at 100 µM [1, 15] | change in vivo at 250 µM [1, 15] | change in vivo at 100 µM [1, 16] | change in vivo at 250 µM [1, 16] | change in vivo at 100 µM [1, 17] | change in vivo at 250 µM [1, 17] | effect on seizure-like swim behaviour, commercially available compounds [1] | Ki [7] | Ki [8, 18] | Ki [6, 19] | further results
FC(F)(F)c1ccc(Cn2c(CN3CCCC3)nc3ccccc32)cc1 [Compound 6] | -34.5% | -100% | 38.1% | -91.9% | -51.3% | -100% | 10% | -100% | -75.4% | -79.3% | -79.2% | -92.7% | -40% | -94.7% | -76.2% | -90.5% |  |  |  |  | effect on seizure-like swim behaviour, initial library screen [1]: effective in suppressing; effect on seizure-like swim behaviour, retest of independently synthesized compound [1]: reduced the high-velocity seizure-like swim behaviour; effect on electrographic seizure activity (LFP) [2]: significant suppression of electrographic seizure activity; Ki ([3]; read-out: Ki 5-HT2BR): 285 nM; Ki ([4]; read-out: Ki H1): 16 nM
c1cn(CC2CCCCC2)c(CN2CCCC2)n1 [Compound 21] | 17.5% | 52.2% | -5.2% | -11.5% | 11.1% | 80.9% | 8.5% | -44.9% | 13.2% | 37.8% | 24% | -14.2% | 12.5% | 6.5% | 12.5% | 6.5% |  |  |  |  | binding to any human 5-HT2R [5]: no significant binding
C[C@H](N)Cn1ccc2cc(F)c(Cl)cc21 [Ro 60-0175] |  |  |  |  |  |  |  |  |  |  |  |  |  |  |  |  | borderline effective | 4.3 nM | 9.1 nM |  | Ki [6]: 37.2 nM
Br.CN(C)C1CCc2cc(O)c(O)cc2C1 (centres unmarked) [TL-99] |  |  |  |  |  |  |  |  |  |  |  |  |  |  |  |  | failed to elicit any behavioural effect | 2040 nM | 2290 nM | 2340 nM | 
c1cnc(N2CCN(Cc3ccc4c(c3)OCO4)CC2)nc1 [piribedil, Piribedil, reference compound] |  |  |  |  |  |  |  |  |  |  |  |  |  |  |  |  |  |  |  | > 10000 nM | toxicity at 100 µM ([9]; 100 µM): toxicity; toxicity at 250 µM ([9]; 250 µM): toxicity; Ki [8, 20]: > 10000 nM
c1ccc2c(c1)nc(CN1CCCC1)n2CC1CCCC1 [Compound 20] | 17.3% | -62.7% | -4.1% | -80.4% | -27.1% | -65.9% | -14.1% | -100% | -25.2% | -60.9% | -48.1% | -9.7% | -15.6% | -66.1% | -15.6% | -66.1% |  |  |  |  | effect on seizure-like swim behaviour, initial library screen [1]: effective in suppressing; effect on seizure-like swim behaviour, retest of independently synthesized compound [1]: reduced the high-velocity seizure-like swim behaviour; effect on electrographic seizure activity (LFP) [2]: significant suppression of electrographic seizure activity; Ki ([3]; read-out: Ki 5-HT2BR): 772 nM; Ki ([4]; read-out: Ki H1): 161 nM
Clc1cccc(COc2cncc(N3CCNCC3)n2)c1 [CP-809,101] |  |  |  |  |  |  |  |  |  |  |  |  |  |  |  |  | biphasic response | 6 nM | 64 nM | 1.6 nM | 
CC(N)Cc1cccc(C(F)(F)F)c1.Cl (single isomer, unassigned; (+)) [norfenfluramine, (+)-Norfenfluramine hydrochloride, reference compound] |  |  |  |  |  |  |  |  |  |  |  |  |  |  |  |  | suppressed convulsive swim behaviours in a concentration-dependent manner; also recorded: restore the swimming behaviour or scn1lab mutant larvae to wild-type levels | 18 nM | 306 nM |  | larvae with reduced spontaneous seizure events (LFP) ([2]; n = 8): 5 out of 8; Ki [6]: 194 nM
C=CCN1C[C@H](C(=O)N(CCCN(C)C)C(=O)NCC)C[C@@H]2c3cccc4[nH]cc(c34)C[C@H]21 [cabergoline, Cabergoline] |  |  |  |  |  |  |  |  |  |  |  |  |  |  |  |  |  |  |  | 6.17 nM | effect on convulsive swim behaviour at 250 µM ([1]; 250 µM): significantly reduced convulsive swim behaviour; Ki [8, 20]: 692 nM
c1ccc2c(c1)nc(CN1CCCC1)n2CC1CCCCC1 [Compound 4] | -85.7% | -93.5% | -30.6% | -100% | -85.6% | -100% | -68.3% | -67.4% | -79.4% | -83.7% | 146% | -100% | -41.7% | -93.4% | -44.8% | -100% |  |  |  |  | effect on seizure-like swim behaviour, initial library screen [1]: effective in suppressing; effect on seizure-like swim behaviour, retest of independently synthesized compound [1]: reduced the high-velocity seizure-like swim behaviour; effect on electrographic seizure activity (LFP) [2]: significant suppression of electrographic seizure activity; Ki [3]: 612 nM; Ki [4]: 153 nM
